Data on 62 molecules can be found in a melting point compilation (Tetko et al.; mined from patent text by program, amines drawn as free bases though some values may be those of a salt).

Each structure is given as a SMILES string.

As a reminder, the melting point is the temperature of the solid-liquid transition.

For `Oc1ccc(-c2cnc3cnc(-c4cccc(O)c4)nc3c2)cc1`, the melting point is above 268 °C. The result for `O=C(NC[C@H]1CN(c2ccc(N3CCS(=O)(=O)CC3)c(F)c2)C(=O)O1)C(F)F` reads 177 to 178 °C; that for `CCN1N=C(c2ccc([N+](=O)[O-])cc2)C(C)(C)C1=O`, 118 to 120 °C; that for `O=C(CCBr)N1CC(c2ccccc2)c2ccccc21` (configuration not stated), 98 to 99 °C. The same measure for `COc1cc(C(=O)O)cc2c1C(=O)c1c(OC)ccc(OC)c1C2=O`: 260 to 262 °C. With `CCN1C(=O)C(C)(C)C(=O)N(C)c2cc(CN(CCn3ccc4oc(C)cc4c3=O)Cc3ccccc3C#N)ccc21`, the melting point lay in the range of 157 to 159 °C.

For the molecule `CCCc1ccnc2c(=O)[nH]c(-c3cc(S(=O)(=O)N4CCC(C(=O)O)CC4)ccc3OCC)nc12`, the melting point is 262 to 264 °C. The same measure for `Cc1oc(-c2ccc(C(C)C)cc2)nc1CCOc1ccc(C[C@H](OCC(F)(F)F)C(=O)O)c2sccc12`: 181 to 182 °C. The result for `Cc1c(-c2ccc(O)cc2)n(Cc2ccc(OCCN(C(C)C)C(C)C)cc2)c2ccc(O)cc12` reads 96 to 102 °C; that for `CCOC(=O)C1=C(C)NC(CSCCl)=C(C(=O)OCC)C1c1cccc([N+](=O)[O-])c1` (configuration not stated), 157 to 159 °C. The result for `O=C(O)CS(=O)(=O)Nc1ccc(F)c(C(F)(F)F)c1` reads 138 to 140 °C; that for `C=Cc1ccc(C(=O)NC(C#N)n2cccn2)cc1` (configuration not stated), 159 to 161 °C; that for `NC(=O)C1(/C=C2\CN3C(=O)CC3O2)C=CC=CC1` (configuration not stated), 197 to 199 °C. Molecule `COc1ccc(C(=O)C2CCN(C(C)=O)CC2)c(OC)c1` came in with a melting point of 132 to 134 °C. The result for `Cc1oc(-c2ccc3ccccc3c2)nc1CCc1ccc(CCCC2OC(=O)NC2=O)cc1` (configuration not stated) reads 168 to 169 °C; that for `CC(C)[C@@H](CNC(=O)/C=C/c1ccccc1)NC(=O)OC(C)(C)C`, 149 to 151 °C; that for `CC(C)c1cc(S(=O)(=O)c2ccc(N)cc2)cc(N2CCCC2)n1`, 148 to 150 °C.

With `CCOc1ccc(CCCCC=CC(=O)O)cc1`, the melting point lay within 62 to 63 °C. The result for `OC1c2cc(OCc3ccc4ccccc4n3)ccc2OCCC1Oc1cccnc1` (configuration not stated) reads 134 to 136 °C; that for `C=CCOc1ccc(-c2nc3cnccc3[nH]2)c(OC(C)C)c1`, 179 °C. In turn, `C[C@H]1c2cc(F)ccc2-c2ccc(F)cc2N1S(=O)(=O)c1ccc(O)cc1` returned a melting point of 194 to 196 °C. The result for `ClCc1ccc(OCCOc2ccccc2)cc1` reads 159 to 160 °C. The same measure for `Fc1c(Cl)cccc1COc1cccnc1NC(=S)Nc1ccc(Cl)cc1`: 174 to 176 °C; for `Nc1cnc(-c2ccc(Cl)cc2)n(CC(=O)NC(Cc2ccccc2)C(=O)C(F)(F)F)c1=O` (configuration not stated): 197 to 200 °C; for `COc1ccccc1C1(O)C(O)CC(c2ccccc2)(c2ccccc2)C2CN(Cc3ccccc3)CC21` (configuration not stated): 236 °C. The result for `CCC(CC)N(O)C(=O)NCCCC(C)CNC(=O)N(O)C(CC)CC` (configuration not stated) reads 124 to 125 °C; that for `Cc1cc(C2=NOC(c3cc(Cl)cc(Cl)c3)(C(F)(F)F)C2)ccc1C(=O)O` (configuration not stated), 146 to 148 °C; that for `COc1c(C(=O)O)nc(-c2ccc(Cl)c(OC)c2F)c(F)c1N`, 143 to 146 °C.

In turn, `CC1OC(n2cc(F)c(NC(=O)c3ccccc3)nc2=O)C(OC(=O)c2ccccc2)C1OC(=O)c1ccccc1` (configuration not stated) showed a melting point of 158 to 160 °C.

With `CC(=O)Nc1cccc2c1C(=O)OC2C` (configuration not stated), the melting point amounted to 112 °C. The same measure for `Brc1cccc(-c2cc3nccnc3[nH]2)c1`: 247 to 249 °C. For the molecule `CN(C(=O)c1ccc(Cn2cnc3cnccc32)cc1)C1CCCCC1`, the melting point was 121 to 123 °C.

As to `O=C(O)c1cn2c3c(cc(F)cc3c1=O)C1CCCCC12` (configuration not stated), the melting point is 281 to 282 °C. The molecule `Nc1nc(F)cc(OCc2ccccc2)n1` yielded a melting point of 96 to 98 °C. The result for `N#Cc1nc2cc(Cl)c3cccnc3c2o1` reads 214 to 215 °C; that for `O=c1nc(C2CC2)sc2ccccc12`, 120 °C.

The molecule `COc1ccc(/C=C/C(=O)C#CC(=O)O)cc1` gave a melting point of 98 to 100 °C. The result for `Cc1cccc(NC(=O)NCC(=O)N(c2ccccc2)C(C(=O)OC(C)(C)C)c2ccccc2Cl)c1` (racemic) reads 181 °C; that for `COc1ccc(C(=O)Cc2ccc(Br)cc2)cc1`, 142 °C; that for `CS(=O)(=O)Nc1cc2occ(NC(N)=O)c(=O)c2cc1Oc1ccccc1`, above 250 °C.

For the molecule `CCCCC(=O)CC1c2ccccc2C(=O)N1c1ccc2ccc(OC)nc2n1` (configuration not stated), the melting point came to 161 °C. The same measure for `COc1cc2nc(N3CCN(C(=O)c4nnc(SC)o4)CC3)nc(N)c2cc1OC`: 228 to 230 °C. The result for `COc1cc(C)c(C(=O)c2c(Cl)cnc(Cl)c2Cl)c(OC)c1OC` reads 60 to 61 °C.

As for `CCCS(=O)c1ncc(C(F)(F)F)cc1Cl` (configuration not stated), the melting point fell in the range of 51 to 53 °C. The same measure for `Nc1nc2ccccc2c2c1ncn2CCOC/C=C/c1ccccc1`: 184 °C; for `Cc1cc(C2=NOC(c3cc(Cl)cc(Cl)c3)(C(F)(F)F)C2)ccc1C(=O)NC1(Cl)N=CC=CN1` (configuration not stated): 231 to 234 °C. The result for `CN(C)C(=O)Nc1ccc(S(=O)(=O)CCc2ccccc2)c(Cl)c1` reads 136 to 138 °C.

In the case of `CC(C)N1CCC(CNc2ccc(Cl)cc2C(=O)Nc2ccccn2)CC1`, the melting point was in the range of 118 to 120 °C. `CCOC(=O)c1sc(Br)c2c1OCO2` registered a melting point of 93 °C.

For `O=C(O)c1cn(-c2ccc(F)c([N+](=O)[O-])c2)c2nc(Cl)c(F)cc2c1=O`, the melting point was above 270 °C.

`CCCC1N=Cc2cc(Cl)nc(=O)n21` (configuration not stated) had a melting point of 194 to 196 °C.

Regarding `COc1ccc(NC(=O)c2ccccc2F)c(C(C)=O)c1OC`, the melting point fell in the range of 106 to 108 °C. The same measure for `COc1c(CC#N)c2c(c3c1OC(C)(C)C3)C(c1cccc(C(=O)NC(C)(C)C(N)=O)c1)=NC(C)(C)C2`: 217 to 219 °C; for `CSc1nc(O)nn1C(C)C`: 90 to 92 °C. For `O=C(Nc1cc(-c2ccnc3c(C(=O)c4cccs4)cnn23)ccc1F)c1ccccc1F`, the melting point was in the range of 214 to 216 °C. The same measure for `CC(=O)NC[C@H]1CN(c2ccc(N3CCC(=C(C#N)CCO)CC3)c(F)c2)C(=O)O1`: 192 to 194 °C; for `CN(C)CCOc1ccccc1NC(=O)c1cccc2[nH]ccc12`: 110 °C.

On to `O=C1CCCc2c1c1cc(Cl)ccc1n2Cc1ccc(F)cc1`, for which the melting point fell in the range of 207 to 208 °C. The same measure for `COc1cc2c(cc1OC)[C@@H]1CN(C)CC[C@@H]1N=C2c1ccc(NC(C)=O)cc1` (relative stereo): 173 to 175 °C; for `CC(=O)NCC1CC(c2ccc(-n3ccc(C=O)c3)c(F)c2)=NO1` (single isomer, unassigned; (-)): 155 to 156 °C; for `Cc1ccc(S(=O)(=O)Nc2cc(CC(C)C)c([N+](=O)[O-])cc2Br)cc1`: 170 °C. The result for `CN(C)C(=O)Nc1cc(Cl)ccc1O` reads 164 °C.
